Assay results taken from patent publication US20090326633A1, “CONTROLLED RELEASE ENDOPROSTHETIC DEVICE” (BOEHRINGER INGELHEIM PHARMA GMBH & CO. KG, priority 2001, published 2009).
pIC50: −log10 of the molar value.

Test system: muscle cells
Test: Cell proliferation ELISA, BrdU incorporation into DNA (inhibition of DNA synthesis)
Assay type: cell-based
Conditions: stents loaded with dipyramidole
Description: Incorporation of BrdU instead of thymidine into the DNA, measurement with anti-BrdU-POD antibody (Cell proliferation ELISA, BrdU; obtained from Roche Diagnostics, Mannheim, Germany)
The following results have been obtained using this test with the stents loaded with dipyramidole according to the present invention: […]

OCCN(CCO)c1nc(N2CCCCC2)c2nc(N(CCO)CCO)nc(N3CCCCC3)c2n1 [dipyridamole, 2,6-bis(diethanolamino)-4,8-dipiperidino-pyrimido[5,4-d]pyrimidine]
pIC50 (muscle cells stimulated with PDGF-BB): 6.52 to 7.00
pIC50 (muscle cells without stimulation): 5.52 to 6.00
pIC50 (with freshly prepared medium): 5.00 to 5.40
